Values quoted from earlier work in patent US20250325518A1, “USE OF A COMBINATION OF SACUBITRIL AND VALSARTAN” (Novartis AG, priority 2016, published 2025).

Legend:
[1] = test system: adult patients with HF with reduced ejection fraction (HFrEF); conditions: LCZ696 vs enalapril
[2] = test system: patients 8 months to 14 years with HF due to congenital heart disease or cardiomyopathy; conditions: pediatric HF patients 8 months to 14 years; placebo-controlled

Compound | relative risk reduction (RRR), time to first occurrence of composite endpoint of CV death or HF hospitalization ([1]; N=8442, p=0.0000002) [%] | relative risk reduction (RRR), time to CV death ([1]; p=0.00004) [%] | relative risk reduction (RRR), time to first HF hospitalization ([1]; p=0.00004) [%] | composite measure of HF outcomes (worsening, improved or unchanged), primary endpoint [2]
trisodium [3-((1S,3R)-1-biphenyl-4-ylmethyl-3-ethoxycarbonyl-1-butylcarbamoyl)propionate-(S)-3′-methyl-2′-(pentanoyl{2″-(tetrazol-5-ylate)biphenyl-4′-ylmethyl}amino)butyrate] hemipentahydrate [LCZ696] | 20 | 20 | 21 | 
COc1ccccc1OCCNCC(O)COc1cccc2[nH]c3ccccc3c12 (stereo not shown) [carvedilol] |  |  |  | did not meet its composite primary endpoint
